Results published in patent US20090291910A1, “AGENT AND FOOD FOR PREVENTING/IMPROVING FUNCTIONAL DIGESTIVE DISORDER” (AJINOMOTO CO., INC, priority 2004, published 2009).

Legend:
[1] = test system: stomach emptying; test: gastric emptying rate, phenol red in 5% casein fluid diet; conditions: oral in 5% casein fluid diet, 30 min; for stomach emptying rate: FIGS. 7A, 7B, 7C
[2] = test system: NO release in the stomach mucous membrane; test: NO release in the stomach mucous membrane during intragastric perfusion (NO electrode); format: in vivo, SD rat
Method: SD rat was subjected to laparotomy with urethane anesthesia, a small incision was made in the anterior stomach and the small intestine, a 2 mm diameter polyethylene tube was inserted, and the perfusate was introduced and discharged with a Perista Pump. The perfusate was heated to 38° C. and the flow rate was 1 mL/min. The NO electrode was maintained under the lamina muscularis mucosae together with a temperature sensor, saline was perfused in the stomach for 2-3 hr, the released NO value was stabilized, and isotonic MSG solution (150 mM) was perfused during the time zone of 14:00-18:00.

[3] = test system: vagus nerve afferent pathway; conditions: cited from earlier work
[4] = test system: plasma 5HT and 5HIAA in portal blood; test: leakage of serotonin and 5HIAA in the portal blood after intragastric administration; format: in vivo, SD rats; conditions: 450 mM MSG 2 mL oral, 0-60 min
Method: Male SD rats (8-week-old) were used. They were bred in a light-dark control room with a 7:00-19:00 light period. […] The catheter was filled with saline containing 10 unit/mL heparin to prevent hematological coagulation in the catheter. Saline and MSG 450 mM solution were each administered orally by 2 mL using an oral sonde. The blood was drawn every 10 min from 10 min before the administration to 60 min after the administration. To prevent unnecessary platelet activation, blood samples were collected with sufficient attention. […] To the separated plasma was rapidly added an equivalent amount of a mixture (adjusted to pH 2) of acetic acid and hydrochloric acid to eliminate protein. The serotonin (5-HT) amount and 5HIAA amount contained in the supernatant were analyzed by an electric chemical detector (ECD-100, manufactured by Accom Inc.). The analysis conditions were as follows.
Using the aforementioned analysis method, serotonin and 5HIAA of stable metabolite thereof of the same sample were quantitated. […] Each was normalized based on the value at 0 min immediately after administration as 100%. The blood collection time immediately after 2 mL intragastric administration was taken as 0 min.

[5] = test system: stomach emptying; test: stomach emptying, glass beads distribution in stomach and small intestine; format: in vivo, SD rats; conditions: 1% monosodium glutamate in 5% casein, 10 mL/kg oral; beads 1 hr later, autopsy 30 min later; N=5 vs N=4; FIG. 5
Method: 7-to 9-week-old male SD rats were fasted overnight and applied to the experiment. A test diet was orally administered at a volume of 10 mL/kg and, 1 hr later, about 80 glass beads having a diameter of 1 mm were orally administered. The rats were autopsied 30 min later, and the number of beads present in the stomach and small intestine was counted. The small intestine was divided into 4, and named B1-B4 from the area near the stomach.

arginine glutamic acid salt
comparison of stomach emptying effect with sodium salt ([1]; FIGS. 6A, 6B): promotes stomach emptying from lower doses as compared to sodium salt
stomach emptying degree with the stomach emptying rate of the control group as 100 ([1]; FIGS. 6A, 6B): promoted stomach emptying

N[C@@H](CCC(=O)O)C(=O)[O-].[Na+] [monosodium glutamate]
stomach emptying degree with the stomach emptying rate of the control group as 100 ([1]; FIGS. 6A, 6B): promoted stomach emptying
NO concentration in the stomach mucous membrane ([2]; MSG (2.5%) perfusion, FIG. 3): confirmed to increase
latent time of increase in released NO ([2]; isotonic MSG (2.5%) perfused in the stomach): ~15 min
cases with an increase in the released NO ([2]; isotonic MSG (2.5%, 150 mM) perfused in the stomach): 3 cases out of 20 cases
activation of the vagus nerve afferent pathway ([3]; administration into the stomach and duodenum): activates the vagus nerve afferent pathway
activation of the vagus nerve ([3]; intravenous and intraportal administration): does not activate the vagus nerve
relative concentration of plasma 5HT in portal blood versus saline administration ([4]; FIG. 4A): no difference
relative concentration of plasma metabolite 5HIAA in portal blood versus saline administration ([4]; FIG. 4B): showed an increase beyond the increase by the saline administration group

N[C@@H](CCC(=O)O)C(=O)O [glutamic acid]
distribution of beads in stomach and small intestine versus control group [5]: tends to contain a smaller number of beads in the stomach and a large number of beads in the small intestine

lysine glutamic acid salt
stomach emptying rate [1]: promote stomach emptying

N[C@@H](CCC(=O)[O-])C(=O)[O-].[Ca+2] [calcium glutamate]
stomach emptying rate [1]: promote stomach emptying
